Experimental findings from patent publication US20260274814A1, “THIENYL COMPOUNDS FOR THE TREATMENT OF A CENTRAL NERVOUS SYSTEM DISEASE OR DISORDER” (Coreterra Therapeutics, Inc., priority 2023, published 2026) are described below.

The assay concerns mice. Description: Neuropharmacological Assay (SmartCube): automated behavioral signature of compound-treated mice compared with a database of reference drug classes. It counts as in vivo. The settings on record: for minimal effective dose: Mus musculus, ip; for minimal effective dose / MED / MED (minimal effective dose): i.p., that dose is shown. In a few lines: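 Probabilities of matching each neuropharmacological class (e.g. anxiolytic, antidepressant) come from algorithmic analysis of digitally recorded behaviour, reported for 3.0 mg/kg. Compounds were given intraperitoneally in a Pharmasolve/PEG/propylene glycol vehicle 15 min pre-test. Minimal effective dose is the lowest dose reaching 45% or more total activity.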

[1] abbreviates: minimal effective dose: dose having 45% or more total activity in SmartCube, if only one dose tested, read-out: MED.
Where [2] appears, read: SmartCube class probability, 3.0 mg/kg i.p., 15 min before test.
Where [3] appears, read: SmartCube probability class, 3.0 mg/kg dose, i.p. 15 min before the behavioral test.
The mark [4] stands for this setting: SmartCube class probability, 3.0 mg/kg i.p., 15 min before test, hydrochloride, 3 mg/kg.
The mark [5] stands for this setting: probability that activity matches this class of agents, 3.0 mg/kg i.p., 15 min before test.
[6] abbreviates: probability that activity matches this class of agents, 3.0 mg/kg i.p., 15 min before test, hydrochloride, 3 mg/kg.
Setting [7] is: SmartCube probability class, 3.0 mg/kg dose, i.p. 15 min before the behavioral test, hydrochloride, 3 mg/kg.
Where [8] appears, read: minimal effective dose: dose having 45% or more total activity in SmartCube, if only one dose tested.
[9] abbreviates: dose having 45% or more total activity in SmartCube, if only one dose was tested, hydrochloride.
[10] abbreviates: SmartCube class probability, 3.0 mg/kg i.p., 15 min before test, 3 mg/kg.

Each structure is given as a SMILES string. Where a name gives a salt, the structure may show the parent alone. Read-outs that look alike come from different tables or passages of the source.

Take `CNC1(C)COc2ccsc2C1` (centres unmarked) [Compound 266, N, 6-dimethyl-5,7-dihydrothieno[3,2-b]pyran-6-amine formate salt]: the minimal effective dose under setting [1] was more than 3 mg/kg. Moreover, under setting [2], the AD result was “ND (^ <4%)”, the AG entry is given as “ND (^ <4%)”, the AN result is “ND (^ <4%)” and the AP result is “ND (^ <4%)”. Also, under setting [2], the AX entry is “ND (^ <4%)”, the CE result is reported as “ND (^ <4%)”, the MS entry was “ND (^ <4%)” and the PS result was “ND (^ <4%)”. Also, under setting [2], the SH result is “ND (^ <4%)” and the UK result is recorded as “+ (≥4%)”.

Take `CNC1COc2scc(C(F)(F)F)c2C1` (single isomer, unassigned) [Compound 289, N-methyl-5-(trifluoromethyl)-3,4-dihydro-2H-thieno[2,3-b]pyran-3-amine hydrochloride]: the minimal effective dose (minimal effective dose: dose having 45% or more total activity in SmartCube, if only one dose was tested, read-out: MED) was more than 3 mg/kg. For the same compound, under setting [3], the AD result was “ND (^ <4%)”, the AG entry is given as “ND (^ <4%)”, the AN result is recorded as “ND (^ <4%)” and the AP entry is recorded as “ND (^ <4%)”. Under setting [3], the AX entry is on record as “ND (^ <4%)”, the CE result was “ND (^ <4%)”, the HL result is on record as “ND (^ <4%)” and the MS entry was “ND (^ <4%)”. Moreover, under setting [3], the PS entry was “ND (^ <4%)”, the SH entry is listed as “ND (^ <4%)” and the UK result was “+ (≥4%)”.

On to `Cc1csc2c1CC(N)CC2` (single isomer, unassigned) [Compound 143, 3-methyl-4,5,6,7-tetrahydrobenzothiophen-5-amine hydrochloride], for which the minimal effective dose under setting [1] was determined as 1 mg/kg. For the same compound, under setting [2], the AG result is recorded as “ND (^ <4%)”, the AN entry is recorded as “ND (^ <4%)”, the AP result is on record as “ND (^ <4%)” and the AX result is given as “ND (^ <4%)”. In addition, under setting [2], the CE entry is “ND (^ <4%)” and the MS result is on record as “ND (^ <4%)”. Further, under setting [4], the AD result is “+ (≥4%)”, the HL entry was “+ (≥4%)”, the PS result was “++ (≥24%)” and the SH entry was “+ (≥4%)”. The UK result under setting [4] is given as “ND (^ <4%)”.

With `CNC1CCc2c(csc2Cl)C1` (single isomer, unassigned) [Compound 57, 1-chloro-N-methyl-4,5,6,7-tetrahydro-2-benzothiophen-5-amine hydrochloride], the minimal effective dose (dose having 45% or more total activity in SmartCube, if only one dose was tested, read-out: MED (minimal effective dose)) turned out to be 1 mg/kg. Under setting [5], the AG entry is “ND (^ <4%)”, the AN entry was “ND (^ <4%)”, the AX entry was “ND (^ <4%)” and the CE result is recorded as “ND (^ <4%)”. Moreover, under setting [5], the HL entry is “ND (^ <4%)”, the PS result is “ND (^ <4%)” and the SH entry is “ND (^ <4%)”. Moreover, under setting [6], the AD result is given as “++ (≥24%)”, the AP entry is “++ (≥24%)”, the MS entry was “ND (^ <4%)” and the UK result is reported as “+ (≥4%)”.

In the case of `NC1COc2c(C3CC3)csc2C1` (single isomer, unassigned) [Compound 330, 3-cyclopropyl-6,7-dihydro-5H-thieno[3,2-b]pyran-6-amine hydrochloride], under setting [3], the AG result is on record as “ND (^ <4%)”, the AN result is “ND (^ <4%)”, the AP entry was “ND (^ <4%)” and the AX entry was “ND (^ <4%)”. Further, under setting [3], the CE result is given as “ND (^ <4%)”, the HL entry was “ND (^ <4%)”, the MS result was “ND (^ <4%)” and the PS entry is on record as “ND (^ <4%)”. Under setting [3], the SH entry is “ND (^ <4%)”. In addition, under setting [7], the AD entry was “ND (^ <4%)” and the UK result was “+ (≥4%)”. The MED (minimal effective dose: dose having 45% or more total activity in SmartCube, if only one dose was tested, hydrochloride) is listed as more than 3 mpk.

Turning to `NC1CCc2sccc2C1` (single isomer, unassigned) [Compound 213, 4,5,6,7-tetrahydrobenzothiophen-5-amine hydrochloride], under setting [2], the AG result is given as “ND (^ <4%)”, the AN result was “ND (^ <4%)”, the AP result is reported as “+ (≥4%)” and the HL entry is on record as “ND (^ <4%)”. In addition, under setting [2], the MS entry is on record as “ND (^ <4%)”, the PS result was “ND (^ <4%)” and the UK result is listed as “ND (^ <4%)”. In addition, under setting [4], the AD entry is recorded as “+ (≥4%)”, the AX entry is “+++ (≥49%)”, the CE entry is listed as “ND (^ <4%)” and the SH result is given as “+ (≥4%)”. Moreover, the MED under setting [8] is on record as 1 mpk.

On to `CNC1CCc2c(csc2C)C1` (single isomer, unassigned) [Compound 32, N, 1-dimethyl-4,5,6,7-tetrahydro-2-benzothiophen-5-amine hydrochloride], for which the “MED (minimal effective dose)” value under setting [9] is recorded as 1.0 mpk. For the same compound, under setting [5], the AD entry is “+++ (≥49%)”, the AG entry is listed as “ND (^ <4%)”, the AN entry is listed as “ND (^ <4%)” and the CE result is “ND (^ <4%)”. Also, under setting [5], the HL entry is on record as “ND (^ <4%)”, the MS entry was “ND (^ <4%)”, the PS entry is listed as “ND (^ <4%)” and the SH entry was “ND (^ <4%)”. In addition, the UK entry under setting [5] is “ND (^ <4%)”. Besides, under setting [6], the AP result was “+ (≥4%)” and the AX result is listed as “++ (≥24%)”.

As for `CNC1CCc2ccsc2C1.Cl` (single isomer, unassigned) [Compound 10, N-methyl-4,5,6,7-tetrahydrobenzothiophen-6-amine hydrochloride], the “MED (minimal effective dose)” value under setting [9] worked out at 0.3 mpk. Further, under setting [5], the AD entry was “++ (≥24%)”, the AG result is reported as “ND (^ <4%)”, the AN entry is given as “ND (^ <4%)” and the AP result is “++ (≥24%)”. For the same compound, under setting [5], the MS result is reported as “ND (^ <4%)”, the SH entry is “ND (^ <4%)” and the UK entry is on record as “ND (^ <4%)”. Besides, under setting [6], the AX entry was “ND (^ <4%)”, the CE result is “ND (^ <4%)”, the HL result is given as “ND (^ <4%)” and the PS result was “ND (^ <4%)”.

As for `CNC1CCc2scc(F)c2C1` (single isomer, unassigned) [Compound 138, 3-fluoro-N-methyl-4,5,6,7-tetrahydrobenzothiophen-5-amine hydrochloride], the “MED (minimal effective dose)” value (dose having 45% or more total activity in SmartCube, if only one dose was tested) was found to be 1 mpk. Further, under setting [5], the AD entry is recorded as “ND (^ <4%)”, the AG result is given as “ND (^ <4%)”, the AN result is “ND (^ <4%)” and the CE entry is “ND (^ <4%)”. Moreover, under setting [5], the HL entry is reported as “ND (^ <4%)”, the MS entry is reported as “ND (^ <4%)”, the PS entry is listed as “ND (^ <4%)” and the SH result was “ND (^ <4%)”. The UK result under setting [5] is “ND (^ <4%)”. Besides, under setting [6], the AP entry was “+++ (≥49%)” and the AX result is given as “++ (≥24%)”.

On to `NC1CCc2c(Cl)csc2C1` (centres unmarked) [Compound 217, 3-chloro-4,5,6,7-tetrahydrobenzothiophen-6-amine hydrochloride], for which the minimal effective dose under setting [1] was less than 3 mg/kg. Besides, under setting [2], the AD result is given as “ND (^ <4%)”, the AG entry was “ND (^ <4%)”, the AN result was “ND (^ <4%)” and the AP entry is on record as “+ (≥4%)”. Also, under setting [2], the AX entry is reported as “++ (≥24%)”, the CE result is given as “ND (^ <4%)”, the HL entry is “+ (≥4%)” and the MS result is recorded as “ND (^ <4%)”. Further, under setting [2], the PS entry is reported as “++ (≥24%)”, the SH entry is recorded as “ND (^ <4%)” and the UK result was “+ (≥4%)”.

Turning to `CNC1(C)COc2c(C)csc2C1.Cl` (centres unmarked) [Compound 240, N, 3,6-trimethyl-6,7-dihydro-5H-thieno[3,2-b]pyran-6-amine hydroachloride], under setting [2], the AG result is given as “ND (^ <4%)”, the AN entry was “ND (^ <4%)”, the AP result is “ND (^ <4%)” and the AX entry is on record as “ND (^ <4%)”. Under setting [2], the CE entry is recorded as “ND (^ <4%)”, the HL entry is given as “ND (^ <4%)”, the MS entry is recorded as “ND (^ <4%)” and the PS entry is on record as “ND (^ <4%)”. Further, the SH entry under setting [2] is “ND (^ <4%)”. In addition, under setting [10], the AD result is “+ (≥4%)” and the UK result is recorded as “+++ (≥49%)”. The compound further returned an MED under setting [8] of 3 mpk.

For `CNC1CCCc2cscc2C1` (single isomer, unassigned) [Compound 170, N-methyl-5,6,7,8-tetrahydro-4H-cyclohepta[c]thiophen-5-amine hydrochloride], under setting [2], the AD result is reported as “ND (^ <4%)”, the AG result is on record as “ND (^ <4%)”, the AN result is listed as “ND (^ <4%)” and the CE result is reported as “ND (^ <4%)”. Besides, under setting [2], the HL result is “ND (^ <4%)”, the MS result was “ND (^ <4%)”, the PS result is “ND (^ <4%)” and the SH entry is given as “ND (^ <4%)”. Moreover, under setting [4], the AP entry is given as “+++ (≥49%)”, the AX entry was “++ (≥24%)” and the UK result is “ND (^ <4%)”. Besides, the MED (minimal effective dose: dose having 45% or more total activity in SmartCube, if only one dose tested, hydrochloride) stood at 1 mpk.
